Data on 12 molecules can be found in ChEMBL document CHEMBL1201862, “PubChem BioAssay data set” (2004).

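How tested: cells in 96-well plates exposed to compound for 48 hours at five concentrations. Abbreviation: GI50, concentration required for 50% inhibition of growth.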 Active and inactive are the calls of the source. Cut-off read from the data, not from the text of the source: active = GI50 up to about 1.1 µM and inactive = higher. Some results are limits rather than exact numbers.

Test systems include OVCAR-5; KM12; SK-OV-3; NCI-H460; RXF 393; MDA-N; HT-29; A498; UO-31; K562; SK-MEL-2; IGROV-1; OVCAR-8; HOP-62; NCI-H522; UACC-257; PC-3; RPMI-8226; SR.
Holding throughout (experiment): inhibition of tumour cell growth, NCI panel, 48 h

Regarding `Cc1ccc(S(=O)(=O)N/N=C2\CC3C4C=CC3C2C4)cc1` (configuration not stated), the GI50 with OVCAR-5, in the experiment with KM12, in the experiment on SK-OV-3, in the experiment with NCI-H460, with RXF 393 and in the experiment with MDA-N was > 100 µM (inactive) throughout. Also, the GI50 in the experiment on HT-29 is > 100 µM (inactive); in the experiment on A498, > 100 µM (inactive); in the experiment with UO-31 it was 21 µM (inactive); with K562 it was > 100 µM (inactive); with SK-MEL-2 it was > 100 µM (inactive); with IGROV-1 it was > 100 µM (inactive). For the same molecule, the GI50 in the experiment with OVCAR-8, with HOP-62, in the experiment on NCI-H522, with UACC-257 and in the experiment on PC-3 was > 100 µM (inactive) throughout.

For the molecule `CC1=CC(C)(C)Nc2ccc(CSc3ccccc3)cc21`, the GI50 with OVCAR-5 is 14.9 µM (inactive); in the experiment on KM12, 26.2 µM (inactive); in the experiment on SK-OV-3, 31.3 µM (inactive); in the experiment with NCI-H460 it was 24.9 µM (inactive); with RXF 393, 16.3 µM (inactive); in the experiment on MDA-N, 22 µM (inactive). The GI50 in the experiment with HT-29 is 16.1 µM (inactive); with A498 it was 24.1 µM (inactive); in the experiment on UO-31, 22.1 µM (inactive); in the experiment on K562 it was 18 µM (inactive); in the experiment with RPMI-8226, 14.9 µM (inactive); in the experiment on SK-MEL-2, 23.4 µM (inactive). Moreover, the GI50 in the experiment on IGROV-1 was 52.1 µM (inactive); with OVCAR-8 it was 46.2 µM (inactive); in the experiment with HOP-62, 29.7 µM (inactive); in the experiment with NCI-H522 it was 16.8 µM (inactive); in the experiment with UACC-257, 26.7 µM (inactive); in the experiment with PC-3 it was 28.9 µM (inactive).

With `O=C1CCC2(c3ccccc3)Nc3ccncc3N12` (configuration not stated), the GI50 in the experiment with OVCAR-5 is > 10 µM (inactive); in the experiment on KM12, > 10 µM (inactive); in the experiment on SK-OV-3, 3.49 µM (inactive); in the experiment on NCI-H460, > 10 µM (inactive); with MDA-N it was > 10 µM (inactive); in the experiment with HT-29, > 10 µM (inactive). Further, the GI50 in the experiment with SR, with UO-31, with K562, with SK-MEL-2, in the experiment with OVCAR-8 and in the experiment with NCI-H522 was > 10 µM (inactive) each time. The GI50 in the experiment with UACC-257 and in the experiment with PC-3 was > 10 µM (inactive) throughout.

Take `CC[C@@H]1CC[C@@H]2[C@H](CC[C@]3(C)[C@@H](O)CC[C@@H]23)[C@H]1C(=O)O`: the GI50 in the experiment with OVCAR-5, in the experiment with KM12, in the experiment with SK-OV-3, in the experiment on NCI-H460, with RXF 393 and with MDA-N was > 100 µM (inactive) throughout. The GI50 with HT-29, in the experiment on A498, with UO-31, with K562, in the experiment on RPMI-8226 and in the experiment on SK-MEL-2 was > 100 µM (inactive) throughout. In addition, the GI50 in the experiment with IGROV-1, in the experiment on OVCAR-8, with HOP-62, in the experiment on NCI-H522, in the experiment on UACC-257 and in the experiment with PC-3 was > 100 µM (inactive) in each case.

Regarding `COc1ccc2c(c1)N=C1CSC(c3ccccc3Cl)N1C2` (configuration not stated), the GI50 is 8.97 µM (inactive) in the experiment with OVCAR-5; 4.6 µM (inactive) in the experiment with KM12; 15.1 µM (inactive) in the experiment with SK-OV-3; 3.12 µM (inactive) in the experiment on NCI-H460; 11.3 µM (inactive) in the experiment on RXF 393; 6.17 µM (inactive) with MDA-N. Also, the GI50 in the experiment with HT-29 is 4.82 µM (inactive); in the experiment with SR, 0.929 µM (active); in the experiment on UO-31 it was 0.351 µM (active); in the experiment with K562, 7.82 µM (inactive); with RPMI-8226, 12.2 µM (inactive); in the experiment with SK-MEL-2 it was 15.8 µM (inactive). Also, the GI50 in the experiment on OVCAR-8 is 16.1 µM (inactive); with HOP-62, 14.5 µM (inactive); with NCI-H522, 15.1 µM (inactive); with UACC-257, 16.3 µM (inactive); with PC-3, 11.5 µM (inactive).

For `Cc1noc(C)c1/N=N/c1ccc2nonc2c1N`, the GI50 in the experiment with OVCAR-5 is > 100 µM (inactive); with KM12, > 100 µM (inactive); with SK-OV-3, 36.7 µM (inactive); with NCI-H460 it was > 100 µM (inactive); in the experiment with RXF 393, > 100 µM (inactive); in the experiment on MDA-N it was > 100 µM (inactive). Also, the GI50 in the experiment on HT-29 was > 100 µM (inactive); in the experiment on SR, > 100 µM (inactive); in the experiment on UO-31 it was 21 µM (inactive); in the experiment on K562, > 10 µM (inactive); in the experiment on RPMI-8226 it was > 100 µM (inactive); in the experiment with SK-MEL-2, > 100 µM (inactive). Also, the GI50 with IGROV-1 is > 100 µM (inactive); in the experiment with OVCAR-8, > 100 µM (inactive); with HOP-62, 79.4 µM (inactive); in the experiment with UACC-257, > 100 µM (inactive); in the experiment with PC-3, > 100 µM (inactive).

With `C/C=C/C(=O)N1C(=O)OC[C@@H]1c1ccccc1`, the GI50 in the experiment on OVCAR-5 is 17.4 µM (inactive); in the experiment with KM12, 14.7 µM (inactive); in the experiment with SK-OV-3, 18.2 µM (inactive); in the experiment on RXF 393, 18.5 µM (inactive); in the experiment on MDA-N it was 20.7 µM (inactive); in the experiment with HT-29 it was 19.2 µM (inactive). Further, the GI50 with A498 is 26.1 µM (inactive); in the experiment on UO-31 it was 19.5 µM (inactive); in the experiment on K562, 22.8 µM (inactive); in the experiment with RPMI-8226, 26.1 µM (inactive); with SK-MEL-2, 19.1 µM (inactive); with IGROV-1, 19.4 µM (inactive). The GI50 was 16.7 µM (inactive) in the experiment with OVCAR-8; 20.4 µM (inactive) in the experiment with HOP-62; 20.4 µM (inactive) in the experiment with NCI-H522; 20.4 µM (inactive) in the experiment on UACC-257; 18.3 µM (inactive) in the experiment on PC-3.

On to `NC(CSCc1ccc(I)cc1)C(=O)O` (configuration not stated), for which the GI50 in the experiment on OVCAR-5, in the experiment on KM12, with SK-OV-3, in the experiment with NCI-H460, with RXF 393 and in the experiment with MDA-N was > 100 µM (inactive) throughout. The GI50 in the experiment on HT-29, in the experiment on A498, in the experiment with UO-31, with K562, with RPMI-8226 and with SK-MEL-2 was > 100 µM (inactive) in each case. Moreover, the GI50 in the experiment with IGROV-1, in the experiment on OVCAR-8, in the experiment on HOP-62, in the experiment on NCI-H522, with UACC-257 and with PC-3 was > 100 µM (inactive) in each case.

Consider `COc1ccc2c(c1)N(C(C)=O)CN1C(=O)CCC21` (configuration not stated), for which the GI50 with OVCAR-5, with KM12, in the experiment with SK-OV-3, in the experiment with NCI-H460, with RXF 393 and with MDA-N was > 100 µM (inactive) in each case. In addition, the GI50 with HT-29 was > 100 µM (inactive); in the experiment with A498 it was > 100 µM (inactive); in the experiment on UO-31 it was > 100 µM (inactive); with K562, 79.6 µM (inactive); in the experiment with RPMI-8226 it was 49.3 µM (inactive); with SK-MEL-2, > 100 µM (inactive). Moreover, the GI50 with IGROV-1, with OVCAR-8, in the experiment on HOP-62, in the experiment on NCI-H522, with UACC-257 and with PC-3 was > 100 µM (inactive) each time.

Regarding `N=C(N)N/N=C/c1c(-c2ccc(Cl)c(Cl)c2Cl)nc2sccn12`, the GI50 was 1.49 µM (inactive) in the experiment on OVCAR-5; 1.58 µM (inactive) in the experiment with KM12; 1.91 µM (inactive) with SK-OV-3; 1.7 µM (inactive) with NCI-H460; 1.59 µM (inactive) in the experiment on MDA-N; 1.64 µM (inactive) in the experiment on HT-29. For the same molecule, the GI50 was 1.1 µM (active) in the experiment with A498; 1.46 µM (inactive) in the experiment with UO-31; 1.74 µM (inactive) in the experiment with SK-MEL-2; 1.27 µM (inactive) in the experiment with IGROV-1; 1.71 µM (inactive) in the experiment on OVCAR-8; 1.69 µM (inactive) in the experiment with HOP-62. Also, the GI50 in the experiment on NCI-H522 was 1.23 µM (inactive); in the experiment with UACC-257, 1.65 µM (inactive); in the experiment with PC-3, 2.72 µM (inactive).

Turning to `CCCCCCCCCCCCCCCC(=O)ON1C(=S)NC(C)(c2ccccc2)C1=S` (configuration not stated), the GI50 in the experiment on OVCAR-5, in the experiment on KM12, with SK-OV-3, with NCI-H460, with RXF 393 and in the experiment with MDA-N was > 100 µM (inactive) in each case. The GI50 is 55.2 µM (inactive) with HT-29; > 100 µM (inactive) with A498; > 100 µM (inactive) in the experiment on UO-31; 38.2 µM (inactive) in the experiment on K562; > 100 µM (inactive) in the experiment on RPMI-8226; > 100 µM (inactive) in the experiment with SK-MEL-2. The GI50 in the experiment with IGROV-1 is 79.3 µM (inactive); in the experiment with OVCAR-8, > 100 µM (inactive); with HOP-62 it was > 100 µM (inactive); with UACC-257, > 100 µM (inactive); in the experiment on PC-3 it was 62.2 µM (inactive).

Turning to `CC(C)N(/C(F)=N\C(=O)Nc1ccccc1C(F)(F)F)C(C)C`, the GI50 in the experiment on OVCAR-5 was > 100 µM (inactive); in the experiment with KM12 it was 42.5 µM (inactive); in the experiment on SK-OV-3, 33.7 µM (inactive); in the experiment with NCI-H460 it was 68.2 µM (inactive); in the experiment with MDA-N it was 66.5 µM (inactive); in the experiment with HT-29 it was 40.2 µM (inactive). The GI50 in the experiment on SR is 28.5 µM (inactive); in the experiment on UO-31, 45 µM (inactive); in the experiment with K562, 35.8 µM (inactive); with RPMI-8226, 24.4 µM (inactive); in the experiment on SK-MEL-2, 22.8 µM (inactive); in the experiment on IGROV-1 it was 33.8 µM (inactive). Besides, the GI50 in the experiment on OVCAR-8 is 58.1 µM (inactive); in the experiment on HOP-62 it was 75 µM (inactive); with UACC-257 it was 55.1 µM (inactive); in the experiment on PC-3, 33.3 µM (inactive).
